Results on six compounds are retold here after patent publication US9018414B2, “Substituted 3-phenylpropionic acids and the use thereof” (Bayer Intellectual Property GmbH, priority 2009, dated 2015).

The structures appear in SMILES notation.

This test has as its system recombinant guanylate cyclase reporter cell line. Nature of the test: Action at recombinant guanylate cyclase reporter cell line (CHO reporter cell). The class given is cell-based. Particulars: MEC = minimal effective concentration; read-out: sGC-activating activity in the CHO reporter cell in vitro, MEC. How it is done:
The cellular action of the compounds according to the invention is determined at a recombinant guanylate cyclase reporter cell line, as described in F. Wunder et al., Anal. Biochem. 339, 104-112 (2005).
Take `C[C@H]([C@H](C(=O)Nc1cc(C2(CC(=O)O)CC2)ccc1F)c1ccc(Cl)cc1)C(F)(F)F` [Example 18, (+)-[1-(3-{[(2S,3R)-2-(4-Chlorophenyl)-4,4,4-trifluoro-3-methylbutanoyl]amino}-4-fluorophenyl)-cyclopropyl]acetic acid]: the minimal effective concentration is 0.01 µM. Turning to `C[C@H]([C@H](C(=O)Nc1cc(CC(C)(C)C(=O)O)ccc1Cl)c1ccc(Cl)cc1)C(F)(F)F` [Example 89], the minimal effective concentration is 0.003 µM. For `C[C@@H](Cc1ccc(Cl)c(NC(=O)C(c2ccc(Cl)cc2)C2CCC(F)(F)C2)c1)C(=O)O` (single isomer, unassigned) [Example 105], the minimal effective concentration came out at 0.03 µM. Regarding `CCCC(CC(=O)O)c1ccc(Cl)c(NC(=O)[C@H](c2ccc(Cl)cc2)[C@@H](C)C(F)(F)F)c1` (stereo partly drawn) [Example 81, 3-(4-Chloro-3-{[(2S,3R)-2-(4-chlorophenyl)-4,4,4-trifluoro-3-methylbutanoyl]amino}phenyl)-hexanoic acid], the minimal effective concentration came to 0.0003 µM. As to `C[C@H]([C@H](C(=O)Nc1cc(CCC(=O)O)ccc1Cl)c1ccc(CC(F)(F)F)cc1)C(F)(F)F` (racemic) [Example 5, 3-[4-Chloro-3-({4,4,4-trifluoro-3-methyl-2-[4-(2,2,2-trifluoroethyl)phenyl]butanoyl}amino)phenyl]-propanoic acid], the minimal effective concentration worked out at 0.003 µM. With `CC[C@@H](CC(=O)O)c1ccc(Cl)c(NC(=O)[C@H](c2ccc(Cl)cc2)[C@@H](C)C(F)(F)F)c1` (single isomer, unassigned) [Example 87], the minimal effective concentration amounted to 0.001 µM.
